{"source": "paper PMC7415810", "about": "“A novel nucleolin-binding peptide for Cancer Theranostics” (Theranostics, 2020)", "key": {"MDA-MB-231-luc xenograft": {"system": "MDA-MB-231-luc xenograft", "assay": "Tumorigenesis experiment, MDA-MB-231-luc breast cancer xenograft", "experimental": "All animal experiments were performed in accordance with IACUC guidelines (GIST-2019-040). For tumorigenesis experiments, anesthetized 6-week-old female NOD-scid Il2rg^-^/^- mice (NPG^TM, VITALSTAR) were inoculated in the mammary fat pad with 1 × 10^6 MDA-MB-231-luc cells in a 100 μl volume (n = 5 for each group). After tumor cell inoculation, when the tumor volume reached approximately 100 mm^3, the mice were randomly divided into the following five groups: (i) control, (ii) low-dose paclitaxel (2 mg/kg), (iii) high-dose paclitaxel (10 mg/kg), (iv) AGM-330 (16.68 mg/kg, molar equivalent to 2 mg/kg of PTX), and (v) AGM-330-PTX (19.05 mg/kg, molar equivalent to 2 mg/kg of PTX). The tumor size was measured twice a week, and the tumor volume was calculated with the following formula: volume (mm^3) = [length (mm)] × [width (mm)]^2 × 0.5. For the bioluminescent imaging experiment, D-luciferin (150 mg/kg; PerkinElmer) was intraperitoneally injected into each mouse, and an IVIS 100 imaging system (Xenogen, Corporation, Alameda, CA) was used for bioluminescent monitoring. Mice were anesthetized with vaporized isofurane (BK Pharm, Ilsan, Korea) and placed in an imaging chamber. After 10 min, each animal was imaged with an exposure time of 1 min. All bioluminescent image data were obtained using Living Image software (version 4.5.2, PerkinElmer). Photons detected from tumors were converted to average radiance values (photon/sec/cm^2/sr), which are quantitative data obtained from a region of […] (ROI) and include the photons emitted by bioluminescent cells from an assigned rectangular area over the whole body of each mouse.\nA, Cell proliferation inhibition by AGM-330-PTX treatment was determined for 48 h by the WST assay in multiple breast and colorectal cancer cells and in normal cells. B, Schematic representation of the experimental protocol as described in the materials and methods section. Anesthetized 6‑week-old […] NPG mice were inoculated with a 1:1 mix of Matrigel and 1 × 10^6 MDA-MB-231-luc cells into the mammary fat pad. When the volume of primary tumors reached approximately 100 mm^3, tumor-bearing mice were treated with vehicle (PBS), PTX (2 or 10 mg/kg), AGM-330 (16.68 mg/kg, molar equivalent to 2 mg/kg of PTX), or AGM-330-PTX (19.05 mg/kg, molar equivalent to 2 mg/kg of PTX; n = 5/group). C-E, The therapeutic effect of AGM-330-PTX was evaluated in breast cancer xenograft models. C, Primary tumor volume was measured twice a week until the day of sacrifice. The primary tumor volume was calculated by the formula volume (mm^3) = (length (mm)) × (width (mm))^2 × 0.5. D, On the day of sacrifice, all primary tumors were isolated, and (E) the primary tumor weights were evaluated. F-I, Immunohistochemistry (IHC) sections of representative tumors with Ki-67 (F,H) and TUNEL (G,I) staining. Nuclei were stained with DAPI (blue). Scale bar, 50 µm. Bar graphs represent the mean ± SD, and statistical analyses were performed by one-way ANOVA with Dunnett's multiple comparison. *, **, and *** indicate P < 0.05, P < 0.01, and P < 0.001, respectively.\nFollowing in vitro proliferation analysis on cancer lines, we investigated whether AGM-330-PTX could be a potential therapeutic agent in vivo. We inoculated MDA-MB-231-luc cells into the mammary fat pad of NPG mice. After the […] tumors grew to 100 mm^3, comparative efficacy studies were performed by dividing the animals into five groups (n = 5/group) treated with vehicle (PBS), PTX (2 or 10 mg/kg, respectively), AGM-330 (16.68 mg/kg, molar equivalent to 2 mg/kg of PTX), or AGM-330-PTX (19.05 mg/kg, molar equivalent to 2 mg/kg of PTX) twice a week by tail vein injection (Figure 5B). Tumor growth was monitored by measuring volumes twice a week with a caliber rule over the course of 3 weeks.\nFigure S11. A-E, NPG TM mice bearing MDA-MB-231-luc tumors were treated twice a week for 21 days with […]"}, "[1]": {"assay": "Release of PTX in vitro (linker hydrolysis) in human serum", "assay_type": "in vitro ADME", "conditions": "100 μM stock diluted 10-fold in 100% human serum, 37 °C, HPLC, triplicate", "experimental": "(§1) Stock solutions of AGM-330-PTX (100 μM) were diluted 10-fold with pre-warmed 100% human serum (Sigma-Aldrich) or PBS and incubated at 37 °C for 0, 1, 2, 6 and 12 h. […] Each experiment was performed in triplicate.\n(§2) Figure S10. A, B, Changes in the HPLC chromatogram of AGM-330-PTX after incubation with human serum (A) or PBS (B). C, D, MS spectra of AGM-330-PTX (C) and AGM-330 (D). E, Time-dependent fluorescence imaging of AGM-330-PTX-Rh in MDA-MB-231 cells. Cells were incubated with 5 μmol/l AGM-330-PTX-Rh. […]\n(§3) bit secondary antibody coupled to Alexa Fluor 488. Cells were then fixed with 4 % paraformaldehyde, and the nuclei were stained with DAPI. MERGE represents a merged image of AGM-330, PTX, and nuclear staining by […]"}, "[2]": {"assay": "Release of PTX in vitro (linker hydrolysis) in PBS", "assay_type": "physicochemical", "conditions": "100 μM stock diluted 10-fold in PBS, 37 °C, HPLC, triplicate", "experimental": "as §1, §2, §3"}, "[3]": {"conditions": "AGM-330-PTX treatment, xenograft"}}, "data": [{"smiles": "CSCC[C@H](NC(=O)[C@H](C)NC(=O)CNC(=O)[C@H](Cc1c[nH]cn1)NC(=O)[C@@H](N)CCCNC(=N)N)C(=O)N[C@H](C(=O)N[C@@H](Cc1ccc(O)cc1)C(=O)N[C@@H](CC(C)C)C(=O)N[C@@H](CCCCN)C(=O)NCCOCCOCCOCCOCCOCCOCCOCCOCCOCCOCCOCCOCCC(=O)NCCCC[C@H](NC(=O)CCOCCOCCOCCOCCOCCOCCOCCOCCOCCOCCOCCOCCNC(=O)[C@H](CCCCN)NC(=O)[C@H](CC(C)C)NC(=O)[C@H](Cc1ccc(O)cc1)NC(=O)[C@@H](NC(=O)[C@H](CCSC)NC(=O)[C@H](C)NC(=O)CNC(=O)[C@H](Cc1c[nH]cn1)NC(=O)[C@@H](N)CCCNC(=N)N)C(C)C)C(=O)NCCCC[C@H](NC(=O)[C@H](CCCCNC(=O)CCOCCOCCOCCOCCOCCOCCOCCOCCOCCOCCOCCOCCNC(=O)[C@H](CCCCN)NC(=O)[C@H](CC(C)C)NC(=O)[C@H](Cc1ccc(O)cc1)NC(=O)[C@@H](NC(=O)[C@H](CCSC)NC(=O)[C@H](C)NC(=O)CNC(=O)[C@H](Cc1c[nH]cn1)NC(=O)[C@@H](N)CCCNC(=N)N)C(C)C)NC(=O)CCOCCOCCOCCOCCOCCOCCOCCOCCOCCOCCOCCOCCNC(=O)[C@H](CCCCN)NC(=O)[C@H](CC(C)C)NC(=O)[C@H](Cc1ccc(O)cc1)NC(=O)[C@@H](NC(=O)[C@H](CCSC)NC(=O)[C@H](C)NC(=O)CNC(=O)[C@H](Cc1c[nH]cn1)NC(=O)[C@@H](N)CCCNC(=N)N)C(C)C)C(=O)N[C@@H](CSC1CC(=O)N(CCC(=O)O[C@@H](C(=O)O[C@H]2C[C@@]3(O)[C@@H](OC(=O)c4ccccc4)[C@@H]4[C@]5(OC(C)=O)CO[C@@H]5C[C@H](O)[C@@]4(C)C(=O)[C@H](OC(C)=O)C(=C2C)C3(C)C)[C@@H](NC(=O)c2ccccc2)c2ccccc2)C1=O)C(=O)O)C(C)C", "note": "(stereo partly shown) [AGM-330-PTX]", "values": [{"measurement": "average tumor volume", "setting": "MDA-MB-231-luc xenograft; 19.05 mg/kg (molar equivalent to 2 mg/kg of PTX), tail vein twice a week, day 21, n = 5", "result": "807 ± 90", "unit": "mm^3"}, {"measurement": "final average tumor weight", "setting": "MDA-MB-231-luc xenograft; 19.05 mg/kg (molar equivalent to 2 mg/kg of PTX), tail vein twice a week, n = 5", "result": "1.3 ± 0.1", "unit": "g"}, {"measurement": "blood chemistry analysis (ALB, GOT, GPT, TP-PS, UA in serum)", "setting": "MDA-MB-231-luc xenograft; 19.05 mg/kg twice a week for 21 days, n = 5", "result": "no adverse signs of toxicity"}, {"measurement": "mouse body weight versus vehicle (PBS)", "setting": "MDA-MB-231-luc xenograft; 19.05 mg/kg twice a week, 3 weeks, n = 5", "result": "not affected"}, {"measurement": "histology of excised tumors (H&E, Ki-67, TUNEL)", "setting": "MDA-MB-231-luc xenograft; 19.05 mg/kg twice a week, excised tumors", "result": "a reduction in the number of cancerous cells and an increase in apoptotic cell nuclei"}, {"measurement": "decrease of average tumor volume with respect to the same dose PTX", "setting": "MDA-MB-231-luc xenograft; 19.05 mg/kg versus PTX 2 mg/kg, n = 5", "result": "approximately 52%"}, {"measurement": "decrease in tumor volume compared with the PBS-treated group", "setting": "MDA-MB-231-luc xenograft; [3]", "result": 63, "unit": "%"}, {"measurement": "decrease in tumor weight compared with the PBS-treated group", "setting": "MDA-MB-231-luc xenograft; [3]", "result": 43, "unit": "%"}, {"measurement": "hydrolysis of the propionic acid linker (release of PTX) in serum", "setting": "[1]", "result": "almost completely hydrolyzed after 2 h"}, {"measurement": "hydrolysis of the propionic acid linker (release of PTX) in PBS", "setting": "[2]", "result": "fully hydrolyzed in PBS after 12 h"}]}]}
